These are literature values, as cited in patent US20140243418A1, “RASAGILINE FOR PARKINSON'S DISEASE MODIFICATION” (Teva Pharmaceutical Industries, Ltd., priority 2008, published 2014).

Molecules are shown by their SMILES.

For series [1], the system named is Parkinson's disease. The settings on record: three doses tested; time to need for levodopa as primary endpoint; cited from earlier work.
Series [2] concerns the target T1, Type-B Monoamine Oxidase (MAO-B) (Homo sapiens, UniProt P27338).
T1 sequence (P27338 1-520): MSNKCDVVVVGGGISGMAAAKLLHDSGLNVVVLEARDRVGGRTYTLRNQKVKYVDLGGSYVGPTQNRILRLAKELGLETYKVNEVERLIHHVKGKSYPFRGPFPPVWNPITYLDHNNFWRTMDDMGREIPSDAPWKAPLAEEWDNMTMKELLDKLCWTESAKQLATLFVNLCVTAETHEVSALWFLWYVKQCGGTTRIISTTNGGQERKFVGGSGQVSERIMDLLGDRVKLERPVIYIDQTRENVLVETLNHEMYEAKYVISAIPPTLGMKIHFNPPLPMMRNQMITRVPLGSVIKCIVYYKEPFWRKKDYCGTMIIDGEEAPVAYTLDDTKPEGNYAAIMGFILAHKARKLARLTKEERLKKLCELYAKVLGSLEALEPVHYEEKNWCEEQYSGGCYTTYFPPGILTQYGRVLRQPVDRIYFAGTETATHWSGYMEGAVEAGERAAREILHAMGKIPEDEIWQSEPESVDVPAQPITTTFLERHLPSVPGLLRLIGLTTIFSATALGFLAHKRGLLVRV
The note with it: cited from earlier work.

Series [3] concerns Parkinson's disease. The note with it: 12 months of treatment and 2 months of drug wash-out; vs placebo; cited from earlier work.

Consider `C#CCN(C)CC1=Cc2ccccc2Oc2ccccc21.O=C(O)/C=C\C(=O)O` [TCH346], for which the “effect on primary or secondary endpoints” value in the series on Parkinson's disease [1] was “did not demonstrate a positive effect”. In addition, the “inhibition of Type-B Monoamine Oxidase (MAO-B)” value in series [2] was “did not inhibit”.
As for `C#CCN(C)[C@H](C)Cc1ccccc1` [selegiline], the “deterioration from baseline in UPDRS motor score” value in the series on Parkinson's disease [3] is reported as “less deterioration from baseline than patients treated with placebo”.
